Measurements as given in ChEMBL document CHEMBL1145498, “A systematic interaction map of validated kinase inhibitors with Ser/Thr kinases” (Proc Natl Acad Sci U S A, 2007).

Assays:
[1] = molecular target: STE20-like serine/threonine-protein kinase (Homo sapiens) (UniProt Q9H2G2)
[2] = molecular target: Serine/threonine-protein kinase OSR1 (Homo sapiens) (UniProt O95747)
[3] = molecular target: Calcium/calmodulin-dependent protein kinase type 1G (Homo sapiens) (UniProt Q96NX5)
[4] = molecular target: Serine/threonine-protein kinase Chk2 (Homo sapiens, UniProt O96017)
[5] = molecular target: Dual specificity protein kinase CLK1 (Homo sapiens) (UniProt P49759)
[6] = molecular target: Cyclin-dependent kinase 6 (Homo sapiens) (UniProt Q00534)
[7] = molecular target: Calcium/calmodulin-dependent protein kinase kinase 2 (Homo sapiens, UniProt Q96RR4)
[8] = molecular target: Dual specificity protein kinase CLK2 (Homo sapiens) (UniProt P49760)
[9] = molecular target: T1, Serine/threonine-protein kinase VRK3 (Homo sapiens) (UniProt Q8IV63)
T1 sequence (whole entry): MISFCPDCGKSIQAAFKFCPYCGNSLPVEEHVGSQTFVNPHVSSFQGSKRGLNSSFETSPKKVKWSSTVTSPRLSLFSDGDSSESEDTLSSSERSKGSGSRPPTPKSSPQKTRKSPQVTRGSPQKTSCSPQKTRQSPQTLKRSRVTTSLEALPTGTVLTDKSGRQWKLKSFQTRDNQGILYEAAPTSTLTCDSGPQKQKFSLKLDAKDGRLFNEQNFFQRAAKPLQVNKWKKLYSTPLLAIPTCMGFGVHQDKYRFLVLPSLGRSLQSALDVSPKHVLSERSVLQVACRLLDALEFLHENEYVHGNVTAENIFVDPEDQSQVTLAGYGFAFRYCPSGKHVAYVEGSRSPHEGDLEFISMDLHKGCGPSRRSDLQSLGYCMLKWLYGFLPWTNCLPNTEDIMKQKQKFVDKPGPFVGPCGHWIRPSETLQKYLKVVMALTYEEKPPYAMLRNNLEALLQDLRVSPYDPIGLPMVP

[10] = molecular target: Serine/threonine-protein kinase 16 (Homo sapiens) (UniProt O75716)
[11] = molecular target: Ribosomal protein S6 kinase alpha-3 (Homo sapiens) (UniProt P51812)
[12] = molecular target: Mitogen-activated protein kinase 6 (Homo sapiens) (UniProt Q16659)
[13] = molecular target: Serine/threonine-protein kinase pim-2 (Homo sapiens, UniProt Q9P1W9)
[14] = molecular target: Serine/threonine-protein kinase 26 (Homo sapiens) (UniProt Q9P289)
[15] = molecular target: Dual specificity protein kinase CLK3 (Homo sapiens) (UniProt P49761)
[16] = molecular target: Cyclin-dependent kinase 16 (Homo sapiens) (UniProt Q00536)
[17] = molecular target: Serine/threonine-protein kinase 38 (Homo sapiens) (UniProt Q15208)
[18] = molecular target: Ribosomal protein S6 kinase alpha-3 (Homo sapiens) (UniProt P51812); remark: listed apart in the source
[19] = molecular target: Serine/threonine-protein kinase PAK 5 (Homo sapiens) (UniProt Q9P286)
[20] = molecular target: T2, Serine/threonine-protein kinase 4 (Homo sapiens) (UniProt Q13043)
T2 sequence (whole entry): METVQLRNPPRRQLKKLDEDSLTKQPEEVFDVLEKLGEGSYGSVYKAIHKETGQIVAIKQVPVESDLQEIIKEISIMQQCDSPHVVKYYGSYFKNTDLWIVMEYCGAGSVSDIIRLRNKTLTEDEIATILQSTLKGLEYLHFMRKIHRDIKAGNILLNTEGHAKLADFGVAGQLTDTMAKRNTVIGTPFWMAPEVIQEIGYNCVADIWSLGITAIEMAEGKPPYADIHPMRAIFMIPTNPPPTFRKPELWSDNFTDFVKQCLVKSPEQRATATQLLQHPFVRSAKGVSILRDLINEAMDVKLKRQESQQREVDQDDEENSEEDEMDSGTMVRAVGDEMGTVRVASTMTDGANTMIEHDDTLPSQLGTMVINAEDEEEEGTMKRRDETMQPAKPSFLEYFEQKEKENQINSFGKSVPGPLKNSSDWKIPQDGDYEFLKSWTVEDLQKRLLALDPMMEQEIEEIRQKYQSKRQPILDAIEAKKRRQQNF

[21] = molecular target: Casein kinase I isoform gamma-1 (Homo sapiens) (UniProt Q9HCP0)
Sequence of Casein kinase I isoform gamma-1 (Homo sapiens) (Q9HCP0 whole entry, looked up, canonical isoform): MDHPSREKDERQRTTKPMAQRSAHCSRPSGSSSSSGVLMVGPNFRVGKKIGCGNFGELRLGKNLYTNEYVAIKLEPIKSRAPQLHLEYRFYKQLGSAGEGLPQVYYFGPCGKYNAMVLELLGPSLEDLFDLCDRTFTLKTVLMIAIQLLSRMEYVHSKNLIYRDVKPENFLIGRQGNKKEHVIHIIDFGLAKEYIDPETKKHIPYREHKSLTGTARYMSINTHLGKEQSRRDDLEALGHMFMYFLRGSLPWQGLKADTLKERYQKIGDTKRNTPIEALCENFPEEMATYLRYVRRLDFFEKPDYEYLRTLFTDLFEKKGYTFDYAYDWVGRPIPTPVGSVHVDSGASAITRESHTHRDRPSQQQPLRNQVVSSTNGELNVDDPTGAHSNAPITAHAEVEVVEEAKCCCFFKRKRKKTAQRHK

Sequence of Dual specificity protein kinase CLK3 (Homo sapiens) (P49761 whole entry, looked up): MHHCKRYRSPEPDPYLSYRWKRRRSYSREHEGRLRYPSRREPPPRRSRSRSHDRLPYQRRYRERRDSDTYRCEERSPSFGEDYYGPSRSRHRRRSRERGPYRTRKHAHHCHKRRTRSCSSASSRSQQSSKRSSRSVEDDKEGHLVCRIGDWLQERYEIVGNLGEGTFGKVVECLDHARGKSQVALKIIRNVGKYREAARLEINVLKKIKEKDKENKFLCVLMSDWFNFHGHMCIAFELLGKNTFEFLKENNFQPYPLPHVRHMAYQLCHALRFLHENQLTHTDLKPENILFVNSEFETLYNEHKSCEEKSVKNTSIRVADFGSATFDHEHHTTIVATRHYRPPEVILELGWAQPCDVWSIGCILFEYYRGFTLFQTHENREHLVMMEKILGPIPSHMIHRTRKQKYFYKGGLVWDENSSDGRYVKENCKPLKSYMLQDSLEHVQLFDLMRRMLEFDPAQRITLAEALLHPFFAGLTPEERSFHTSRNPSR
Sequence of Serine/threonine-protein kinase 26 (Homo sapiens) (Q9P289 2-416 limits assumed): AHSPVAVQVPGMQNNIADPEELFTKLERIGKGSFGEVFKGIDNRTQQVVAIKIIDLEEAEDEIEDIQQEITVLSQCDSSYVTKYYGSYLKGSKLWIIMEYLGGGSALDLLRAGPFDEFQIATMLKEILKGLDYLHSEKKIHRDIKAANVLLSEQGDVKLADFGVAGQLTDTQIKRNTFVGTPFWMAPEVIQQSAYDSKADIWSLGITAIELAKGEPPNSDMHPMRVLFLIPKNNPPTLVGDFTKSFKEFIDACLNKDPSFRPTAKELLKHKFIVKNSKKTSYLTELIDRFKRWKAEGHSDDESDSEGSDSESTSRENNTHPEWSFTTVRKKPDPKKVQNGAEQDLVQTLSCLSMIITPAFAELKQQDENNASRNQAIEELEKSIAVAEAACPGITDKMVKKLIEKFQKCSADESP
Sequence of Ribosomal protein S6 kinase alpha-3 (Homo sapiens) (P51812 whole entry): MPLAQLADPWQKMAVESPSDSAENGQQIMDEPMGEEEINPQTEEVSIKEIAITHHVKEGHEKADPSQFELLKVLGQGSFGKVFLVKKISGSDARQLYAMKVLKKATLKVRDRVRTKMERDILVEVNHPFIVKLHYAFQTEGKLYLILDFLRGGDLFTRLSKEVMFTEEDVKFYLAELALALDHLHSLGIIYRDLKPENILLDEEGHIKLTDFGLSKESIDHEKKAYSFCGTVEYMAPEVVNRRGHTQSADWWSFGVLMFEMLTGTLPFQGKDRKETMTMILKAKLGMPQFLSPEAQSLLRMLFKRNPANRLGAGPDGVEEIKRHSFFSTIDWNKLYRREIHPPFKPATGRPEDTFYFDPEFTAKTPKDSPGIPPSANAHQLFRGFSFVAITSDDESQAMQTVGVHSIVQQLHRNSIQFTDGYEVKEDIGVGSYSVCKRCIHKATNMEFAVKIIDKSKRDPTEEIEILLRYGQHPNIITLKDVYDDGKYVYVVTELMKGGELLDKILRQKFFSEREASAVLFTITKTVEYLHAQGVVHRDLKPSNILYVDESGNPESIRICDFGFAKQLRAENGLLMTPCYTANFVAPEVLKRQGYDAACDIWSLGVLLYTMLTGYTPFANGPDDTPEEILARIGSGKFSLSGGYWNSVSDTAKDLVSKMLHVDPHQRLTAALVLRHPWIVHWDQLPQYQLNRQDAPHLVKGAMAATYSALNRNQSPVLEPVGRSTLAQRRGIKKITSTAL
Sequence of Mitogen-activated protein kinase 6 (Homo sapiens) (Q16659 whole entry): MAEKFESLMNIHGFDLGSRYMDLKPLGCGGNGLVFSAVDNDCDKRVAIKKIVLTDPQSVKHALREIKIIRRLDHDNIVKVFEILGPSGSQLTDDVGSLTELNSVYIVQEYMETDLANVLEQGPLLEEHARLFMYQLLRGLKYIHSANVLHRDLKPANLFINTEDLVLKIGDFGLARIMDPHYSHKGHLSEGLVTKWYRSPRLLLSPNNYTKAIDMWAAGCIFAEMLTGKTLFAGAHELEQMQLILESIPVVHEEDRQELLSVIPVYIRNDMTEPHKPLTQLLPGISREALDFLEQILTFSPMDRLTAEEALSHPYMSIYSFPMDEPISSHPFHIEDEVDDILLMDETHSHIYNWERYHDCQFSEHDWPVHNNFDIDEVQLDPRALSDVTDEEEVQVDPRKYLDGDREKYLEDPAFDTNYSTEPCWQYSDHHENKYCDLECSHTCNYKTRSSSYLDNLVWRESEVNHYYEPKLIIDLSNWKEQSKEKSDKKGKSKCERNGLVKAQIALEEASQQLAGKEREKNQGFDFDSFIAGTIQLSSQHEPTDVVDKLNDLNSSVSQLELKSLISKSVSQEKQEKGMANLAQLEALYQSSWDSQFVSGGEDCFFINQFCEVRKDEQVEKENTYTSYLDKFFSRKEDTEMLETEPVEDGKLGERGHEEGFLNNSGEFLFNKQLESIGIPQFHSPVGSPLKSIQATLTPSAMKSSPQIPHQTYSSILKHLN
Sequence of Serine/threonine-protein kinase 16 (Homo sapiens) (O75716 whole entry): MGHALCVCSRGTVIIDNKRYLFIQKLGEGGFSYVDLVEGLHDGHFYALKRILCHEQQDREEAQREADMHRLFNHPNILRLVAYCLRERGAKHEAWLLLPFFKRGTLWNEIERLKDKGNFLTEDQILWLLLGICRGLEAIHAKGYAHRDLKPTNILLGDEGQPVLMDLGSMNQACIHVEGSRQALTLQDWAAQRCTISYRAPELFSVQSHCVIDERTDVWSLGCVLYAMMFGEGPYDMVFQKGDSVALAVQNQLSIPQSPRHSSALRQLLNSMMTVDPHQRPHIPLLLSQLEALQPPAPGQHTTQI
Sequence of Serine/threonine-protein kinase OSR1 (Homo sapiens) (O95747 2-527 limits assumed): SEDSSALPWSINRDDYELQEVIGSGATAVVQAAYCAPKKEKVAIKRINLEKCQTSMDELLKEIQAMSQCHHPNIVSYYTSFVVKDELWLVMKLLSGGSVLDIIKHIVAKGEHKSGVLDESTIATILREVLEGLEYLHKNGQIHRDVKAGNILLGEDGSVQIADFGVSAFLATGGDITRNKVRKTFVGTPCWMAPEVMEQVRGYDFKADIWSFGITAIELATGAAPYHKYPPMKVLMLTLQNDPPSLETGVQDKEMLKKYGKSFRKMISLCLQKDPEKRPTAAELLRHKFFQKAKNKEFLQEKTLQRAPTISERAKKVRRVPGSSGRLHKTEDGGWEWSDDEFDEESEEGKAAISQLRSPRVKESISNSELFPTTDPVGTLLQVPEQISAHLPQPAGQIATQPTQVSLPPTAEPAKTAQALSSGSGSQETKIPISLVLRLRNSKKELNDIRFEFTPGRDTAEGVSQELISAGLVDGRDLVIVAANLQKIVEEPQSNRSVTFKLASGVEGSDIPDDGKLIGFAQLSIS
Sequence of Cyclin-dependent kinase 6 (Homo sapiens) (Q00534 whole entry): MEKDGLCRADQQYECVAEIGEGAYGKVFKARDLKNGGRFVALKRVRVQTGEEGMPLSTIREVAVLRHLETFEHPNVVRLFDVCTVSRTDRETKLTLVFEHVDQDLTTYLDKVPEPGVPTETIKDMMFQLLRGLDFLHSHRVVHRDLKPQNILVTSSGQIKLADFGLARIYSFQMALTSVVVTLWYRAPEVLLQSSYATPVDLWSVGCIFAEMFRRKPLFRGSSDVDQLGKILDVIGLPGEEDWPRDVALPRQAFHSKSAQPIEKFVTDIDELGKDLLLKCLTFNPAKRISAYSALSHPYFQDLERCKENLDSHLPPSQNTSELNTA
Sequence of Dual specificity protein kinase CLK2 (Homo sapiens) (P49760 whole entry, looked up): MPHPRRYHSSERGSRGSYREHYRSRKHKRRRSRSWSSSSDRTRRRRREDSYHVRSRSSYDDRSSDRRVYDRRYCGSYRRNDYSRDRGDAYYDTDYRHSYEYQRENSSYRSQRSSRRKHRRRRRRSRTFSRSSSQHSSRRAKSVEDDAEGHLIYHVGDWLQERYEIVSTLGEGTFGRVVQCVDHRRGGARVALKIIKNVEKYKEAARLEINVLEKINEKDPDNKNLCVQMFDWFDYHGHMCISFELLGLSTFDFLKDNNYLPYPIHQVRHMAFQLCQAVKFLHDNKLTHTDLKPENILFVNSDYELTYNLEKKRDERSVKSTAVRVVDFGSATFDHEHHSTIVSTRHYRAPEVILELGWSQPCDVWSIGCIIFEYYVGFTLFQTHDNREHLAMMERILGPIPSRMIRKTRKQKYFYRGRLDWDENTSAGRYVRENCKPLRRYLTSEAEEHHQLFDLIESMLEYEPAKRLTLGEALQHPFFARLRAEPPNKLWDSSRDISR
Sequence of Serine/threonine-protein kinase pim-2 (Q9P1W9 whole entry, looked up): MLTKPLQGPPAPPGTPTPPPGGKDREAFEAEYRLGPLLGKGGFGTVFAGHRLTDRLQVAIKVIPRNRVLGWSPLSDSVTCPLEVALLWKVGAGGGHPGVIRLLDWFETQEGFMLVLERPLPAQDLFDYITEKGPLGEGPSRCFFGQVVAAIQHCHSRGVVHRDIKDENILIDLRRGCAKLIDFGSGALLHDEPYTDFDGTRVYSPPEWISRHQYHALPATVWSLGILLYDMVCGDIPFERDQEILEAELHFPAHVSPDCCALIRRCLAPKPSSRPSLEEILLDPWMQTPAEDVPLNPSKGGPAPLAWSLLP

SMILES | ΔTm [1] [°C] | ΔTm [2] [°C] | ΔTm [3] [°C] | ΔTm [4] [°C] | ΔTm [5] [°C] | ΔTm [6] [°C] | ΔTm [7] [°C] | ΔTm [8] [°C] | ΔTm [9] [°C] | ΔTm [10] [°C] | ΔTm [11] [°C] | ΔTm [12] [°C] | ΔTm [13] [°C] | ΔTm [14] [°C] | ΔTm [15] [°C] | ΔTm [16] [°C] | ΔTm [17] [°C] | ΔTm [18] [°C] | ΔTm [19] [°C] | ΔTm [20] [°C] | also measured
Cn1cc(C2=C(c3cn(CCCN)c4ccccc34)C(=O)NC2=O)c2ccccc21 | 7.6 | -0.1 | 0.3 | 5.9 | 8.2 | 1.3 | -0.1 | 5.6 | 0.9 | 4.3 | 1.9 | 0.3 | 5.6 | -0.2 | 3.5 | 4.7 | 0.2 | 8.1 | 1.4 | 2.2 | ΔTm [21]: 0.5 °C
O=C(O)Cc1ccc(O)c([N+](=O)[O-])c1 | 0 | 0 | 0.6 | -0.8 | -0.6 | 0.1 | -0.1 | 0.5 | -0.3 | 0.4 | 1.1 | 0.8 | -0.1 | 1.1 | -0.6 | -1.2 | 2 | -0.1 | 0.1 | 0.4 | ΔTm [21]: 0.3 °C
O=Nc1c(-c2c(O)[nH]c3ccccc23)[nH]c2ccccc12 | 3.9 | 1.7 | 1.1 | 3.1 | 4 | 3.3 | 4.3 | 1.5 | -0.8 | 5.1 | 0 | 0.1 | 0 | 2.7 | 2.7 | 3.2 | 2.7 | 5.5 | 2.6 | 7.8 | ΔTm [21]: -0.3 °C
CN(C)c1ccc(CC2C(=O)Nc3ccccc32)cc1 (stereo not drawn) | 0.8 | -0.6 | -0.2 | 0.7 | 2 | 0.8 | 2 | 1.7 | 0.1 | 1.9 | 0.9 | 0.1 | 0.4 | 0.3 | 0.1 | -0.5 | 1.5 | 3.6 | 0.3 | 4.4 | ΔTm [21]: 1.2 °C
O=[N+]([O-])c1ccc(-c2nc(-c3ccc(F)cc3)c(-c3ccncc3)[nH]2)cc1 | 5.4 | -0.3 | -0.2 | -0.4 | -1.2 | 0.9 | -0.5 | 0.1 | 0.4 | 0.5 | 0.7 | 0.4 | 0.5 | -1.4 | 0.1 | -0.9 | 0.9 | 1.8 | 1 | 1.4 | ΔTm [21]: 3 °C
O=S(=O)(NCCNC/C=C/c1ccc(Br)cc1)c1cccc2cnccc12 | 1.6 | 0.9 | 0 | 2.6 | 1.1 | -0.4 | -0.1 | 0.7 | 0.2 | 0.5 | 0.6 | 0.4 | -0.3 | 0.9 | 1 | 0.7 | 1.7 | 2.2 | 1.2 | -0.2 | ΔTm [21]: 0.6 °C
OC[C@H]1O[C@@H](n2cnc3cc(Cl)c(Cl)cc32)[C@H](O)[C@@H]1O | 0.1 | 0.4 | -0.1 | 0.2 | 3.1 | -0.3 | 0.6 | 1.6 | -0.2 | 1.1 | 0 | -0.1 | 2.6 | -0.3 | 1.4 | -0.3 | 0.2 | 1.3 | 0.2 | 0.2 | ΔTm [21]: 0.7 °C
COc1cc2ncnc(Nc3cccc(Br)c3)c2cc1OC | 6.9 | 0.6 | 0 | 2 | 1.7 | 0.2 | 1.4 | 0.7 | 0.3 | 0.4 | 0.1 | -0.1 | 0.9 | 0.6 | 0.2 | -0.9 | 0.4 | 1.5 | 0.3 | 1.5 | ΔTm [21]: 0.8 °C
O=c1cc(N2CCOCC2)oc2c(-c3ccccc3)cccc12 | -0.1 | 0.4 | 0.4 | -0.4 | 1.3 | 0.5 | 0.4 | 0.1 | 0.6 | 0.4 | 0.2 | 0.6 | 1.3 | 0.2 | 0.1 | 0 | 0.6 | 0 | 0.5 | 0.6 | ΔTm [21]: 0.6 °C
O=c1sn(Cc2ccccc2)c(=S)n1Cc1ccccc1 | 0.4 | 0.1 | -0.1 | 0.3 | 0.2 | -0.4 | -1.2 | -0.2 | 0.9 | -0.4 | -0.4 | 0.5 | -0.2 | 0.5 | -0.3 | -0.4 | 0.4 | 0 | 0.5 | 0.9 | ΔTm [21]: 0.5 °C
Cc1ccc(NC(=O)c2ccc(CN3CCN(C)CC3)cc2)cc1Nc1nccc(-c2cccnc2)n1 | 1.7 | 0.7 | 0.1 | -1.1 | – | 0.2 | 2.8 | – | -0.2 | 2.9 | -0.4 | 0.5 | 0.6 | -0.3 | – | -0.4 | 0.7 | 2.1 | -0.6 | 0.2 | ΔTm [21]: 0.5 °C
Nc1nc(Nc2ccc(S(N)(=O)=O)cc2)nn1C(=S)Nc1c(F)cccc1F | 12.1 | 5.6 | 2 | 8.6 | 11.5 | 4.6 | 8.6 | 8.9 | 0.9 | 7.8 | 9.6 | 2.1 | 0.6 | 8.3 | 14.7 | 10 | 6.4 | 9.6 | 5.5 | 12.9 | –
